Like-named read-outs stand apart in the source and are kept apart here.

For data set [1], the system named is primary human melanoma cultures. Description: cells. The following applies: for IC50: Homo sapiens. The method, then:
Acridine carboxamide hydrochloride, synthesised in the Cancer Research Laboratory (Atwell G.J., et al., J.Med. Chem. 1987, 30, 664-669), and amsacrine isethionate, obtained from the Parke-Davis Division of the Warner-Lambert Company, Ann Arbor, USA, were dissolved in 50% v/v aqueous ethanol to make stock solutions of 2-5 mmol/l and stored at -20°C. Other cytotoxic drugs were available either from the NCI repository (Monks A., et al., J. Natl. Cancer Inst. 1991, 83, 757-766) or were obtained as described in Marshall E.S., et al., J. Natl. Cancer Inst. 1992, 84, 341-344 and Finlay, et al., Eur. J. Cancer din. Oncol. 1986, 22, 655-662. Cell lines were from the NCI repository except for MM-96 (Dr. R. Whitehead, Ludwig Institute, Melbourne, Australia), FME (Dr. K.M. Tveit, Norwegian Radium Hospital, Oslo, Norway) and Jurkat normal and multidrug-resistant lines (Dr. K. Snow and Dr. W. Judd, Department of Cellular and Molecular Biology, University of Auckland). Melanoma tissue was obtained from patients with pathologically confirmed metastatic and recurrent melanomas under Auckland Hospital Ethical Committee guidelines. Cells were released by digestion of tissue (at 50 mg.ml^-1) with collagenase (1 mg.ml^-1) and DNAase (50 µg.ml^-1) with continuous stirring at 37°C for 1 to 2 hours, and cultured as previously described (Marshall E.S., et al., J. Natl. Cancer Inst. 1992, 84, 341-344).
Tumour cell lines were cultured in 96-well plates. Growth of NCI cell lines was assessed using sulpho-rhodamine B staining (Skehan P., et al., J. Natl. Cancer Inst. 1990, 82, 1107-1112), that of the leukaemia lines with (4,5-dimethylthiazole-2-yl)-2,5-diphenyltetrazolium (MTT) staining (Mosmann T., J. Immun. Methods 1983, 65, 55-63) and that of the primary human tumour material by ^3H-thymidine incorporation (Marshall E.S., et al., J. Natl. Cancer Inst. 1992, 84, 341-344). Primary tumour material was cultured in 96-well plates in which the wells were coated with agarose to inhibit selectively the growth of normal cells. (Marshall E.S., et al., J. Natl. Cancer Inst. 1992, 84, 341-344). Primary cultures were incubated at 37°C in sealed perspex boxes containing a humidified atmosphere of 5% CO2 and 5% O2 in nitrogen for 7 days. 5-Methyl-[^3H]-thymidine (20 Ci.mmol^-1; 0.04 µCi per well), thymidine and 5-fluorodeoxyuridine (each at final concentrations of 0.5 µM) were added in medium to cultures (20 µl per well) 24 h before terminating the cultures. Cells were aspirated on to glass fibre filters using a multiple automated sample harvester (LKB Wallac OY Beta Harvester). The filter discs were washed for 15 seconds with water, dried, and the amount of tritium retained quantified by liquid scintillation.
IC50 values were defined as in Paull K.D., et al., J. Natl. Cancer Inst. 1989, 81:1088-1092, where growth, as indicated by staining or thymidine incorporation, corresponded to 50% of that of the control cultures. […] Variances of DELTA values were expressed as standard deviations in log10 units. Comparison of DELTA values was made using Pearson correlation coefficients. Resistance factors were defined as the ratios of IC50 values between the resistant line and the parent line. Statistical evaluation was performed either with NCI programmes, with RS/1 software (BBN Research Systems, Cambridge, MA, USA), or with Sigmaplot (Jandel Scientific, San Rafael, CA, USA).
DACA was also compared in a series of 12 primary melanoma cultures. Tissue was excised from human malignant melanomas and cultured using a modified 96-well assay system in which the cells were cultured on agarose and assayed for proliferation using the ^3H-thymidine incorporation assay as described in Marshall E.S., et al., J. Natl. Cancer Inst. 1992, 84, 341-344.

The subject of a further data set is CEM-CCRF. Description: Growth inhibition of leukaemia line, continuous exposure, MTT staining. The class given is cell-based. Conditions: Homo sapiens. The method, then:
(§1) Tumour cell lines were cultured in 96-well plates. […] Primary cultures were incubated at 37°C in sealed perspex boxes containing a humidified atmosphere of 5% CO2 and 5% O2 in nitrogen for 7 days. 5-Methyl-[^3H]-thymidine (20 Ci.mmol^-1; 0.04 µCi per well), thymidine and 5-fluorodeoxyuridine (each at final concentrations of 0.5 µM) were added in medium to cultures (20 µl per well) 24 h before terminating the cultures.
(§2) 1989, 81:1088-1092, where growth, as indicated by staining or thymidine incorporation, corresponded to 50% of that of the control cultures.
(§3) The effect of DACA on the growth of cultured cells was assessed by continuous drug exposure. […] These values were similar to those of other human leukaemia cell lines, which ranged from 290 to 760 nM (CEM-CCRF, 410 nM; MOLT-4, 290 nM; Daudi, 400 nM; Raji, 370 nM, U937, 590 nM; HL-60, 620 nM; K-562, 760 nM). Four multidrug-resistant cell lines, developed from JL and JB1 by in vitro exposure to increasing concentrations of doxorubicin (LD and B1D) or amsacrine (LA and B1A) (Finlay G.J., et al., J. Natl. Cancer Inst. 1990, 82, 662-667, Snow K., et al., Br. J. Cancer 1991, 63, 17-28) were tested.

The next data set deals with Daudi. Described as above. In kind it is cell-based. The following applies: Homo sapiens. The method, then: as §1, §2, §3
The next data set has as its system HL-60. The description is as above. In kind it is cell-based. Conditions: Homo sapiens. The protocol:
as §1, §2, §3

The test system of another data set is K-562. The data set is described as above. The following applies: Homo sapiens, K562. In kind it is cell-based. The method, then:
as §1, §2, §3

The next data set relates to MOLT-4. The data set is described as above. The class given is cell-based. Conditions: Homo sapiens. The protocol:
as §1, §2, §3

The test system of another data set is Raji. The data set is described as above. In kind it is cell-based. The following applies: Homo sapiens. The method, then: as §1, §2, §3
Another data set concerns U937. The description is as above. The following applies: Homo sapiens, U-937. In kind it is cell-based. The protocol:
as §1, §2, §3

Data set [2] deals with human Jurkat T cell leukaemia line, diploid (L). The data set is described as above. Conditions: continuous drug exposure. The class given is cell-based. The method, then:
as §1, §2, §3

In data set [3] the test system is human Jurkat T cell leukaemia line, tetraploid (B1). The description is as above. In kind it is cell-based. The following applies: continuous drug exposure. The protocol:
as §1, §2, §3

As for `CN(C)CCNC(=O)c1cccc2cc3ccccc3nc12` [DACA, N-[2-(dimethylamino)ethyl]acridine-4-carboxamide], the IC50 was 200 to 1500 nM in [1] (read-out: IC50 values); 590 nM in data set [1] (read-out: mean IC50); 410 nM in the data set with CEM-CCRF; 400 nM with Daudi; 620 nM in the data set with HL-60; 760 nM in the data set with K-562. In addition, the IC50 is 290 nM with MOLT-4; 370 nM in the data set with Raji; 590 nM in the data set with U937; 380 nM in [2]; 380 nM in data set [3]. In [1] (human, primary melanoma cultures), the “proportions of cells killed” value is on record as over 99%.

By IC50 is commonly meant the concentration that inhibits the measured activity by half.

Values taken from patent EP0642343B1, “Acridine carboxamides for the treatment of cancer” (XENOVA LIMITED, priority 1992, dated 1993).
